We go through 24 compounds from patent US9913843B2, “Protein kinase C inhibitors and uses thereof” (Rigel Pharmaceuticals, Inc., priority 2012, dated 2018).

Where two headings read alike, the source gives them in different places.

The test system of this assay is PKC mediated IL-2 production in human primary T cells. Briefly: IL-2 ELISA, human primary T cell, anti CD3+CD28+ (whole cell functional assay for PKC mediated IL-2 production). In kind it is cell-based. Summed up:
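IL-2 in supernatants was quantified by ELISA after 24 h at 37 °C. Before stimulation with plate-coated anti-CD3 (1 μg/ml) and anti-CD28 (5 μg/ml), T cells expanded from PBMC were exposed to compound for 1 h; the counter-screen replaced antibodies with PMA 0.5 ng/ml and ionomycin 0.1 μM (final).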
A general note: In an ELISA, binding on a coated surface is turned into a signal by an enzyme label.

Setting [1] is: 24 h, human primary T cells stimulated with anti-CD3 + anti-CD28, IL-2 by ELISA, read-out: IC50 for blocking IL-2 production.
Where [2] appears, read: human primary T cells stimulated with anti-CD3 + anti-CD28, 24 h, IL-2 by ELISA, 8 pt, read-out: IL2 ELISA, Human primary T cell, anti-CD3 + CD28, 8 pt (IC50).

For orientation: IC50 means the concentration that inhibits the measured activity by half. As for `Fc1cnc(Nc2ccccc2)nc1NC[C@@H]1CCCN2CCCC[C@H]12` [Compound 13, 5-fluoro-N4-(((1S,9aR)-octahydro-1H-quinolizin-1-yl)methyl)-N2-phenylpyrimidine-2,4-diamine], the IC50 is, setting by setting: under setting [1], under 30 µM; under setting [2], 4.48 µM.

In the case of `COc1cc(Nc2ncc(OC)c(NC[C@@H]3CCCN4CCCC[C@H]34)n2)cc(-n2nnnc2C)c1` [Compound 78, N4-(((1S,9aR)-octahydro-1H-quinolizin-1-yl)methyl)-5-methoxy-N2-(3-methoxy-5-(5-methyl-1H-tetrazol-1-yl)phenyl)pyrimidine-2,4-diamine], the IC50 under setting [1] was under 30 µM and the IC50 under setting [2] was 2.24 µM. For `N#Cc1cc(Nc2ncc(Cl)c(NCC3CCCN4CCCCC34)n2)ccc1C1CC1` [Compound 5, 5-(4-(((1S,9aR)-octahydro-1H-quinolizin-9-yl)methylamino)-5-chloropyrimidin-2-ylamino)-2-cyclopropylbenzonitrile], in that order: under 30 µM and 0.12 µM. As for `N#Cc1cc(Nc2ncc(F)c(NC[C@@H]3CCCN4CCCC[C@H]34)n2)ccc1C1CC1` [Compound 1, 5-(4-(((1S,9aR)-octahydro-1H-quinolizin-1-yl)methylamino)-5-fluoropyrimidin-2-ylamino)-2-cyclopropylbenzonitrile], the IC50 under setting [1] is under 30 µM and the IC50 under setting [2] stood at 0.107 µM. Consider `CN(C)c1cnc(Nc2cc(-n3cnnn3)c(C3CC3)cc2F)nc1NC[C@@H]1CCCN2CCCC[C@H]12` [Compound 85, N2-(4-cyclopropyl-2-fluoro-5-(1H-tetrazol-1-yl)phenyl)-N4-(((1S,9aR)-octahydro-1H-quinolizin-1-yl)methyl)-N5,N5-dimethylpyrimidine-2,4,5-triamine], for which the IC50 is under 30 µM under setting [1] and 3.31 µM under setting [2]. In the same order, the values of `Cc1cnc(Nc2ccc3oc(=O)[nH]c3c2)nc1NC[C@@H]1CCCN2CCCC[C@H]12` [Compound 71, 5-(4-(((1S,9aR)-octahydro-1H-quinolizin-1-yl)methylamino)-5-methylpyrimidin-2-ylamino)benzo[d]oxazol-2(3H)-one] are under 30 µM and 3.75 µM. For `Cn1nnn(-c2cc(Nc3ncc(C#N)c(NC[C@@H]4CCCN5CCCC[C@H]45)n3)c(F)cc2OCCO)c1=O` [Compound 135, 2-((2-fluoro-4-(2-hydroxyethoxy)-5-(4-methyl-5-oxo-4,5-dihydro-1H-tetrazol-1-yl)phenyl)amino)-4-((((1S,9aR)-octahydro-2H-quinolizin-1-yl)methyl)amino)pyrimidine-5-carbonitrile], the IC50 under setting [1] was under 30 µM. As for `OCCOc1ccc(Nc2nccc(NC[C@@H]3CCCN4CCCC[C@H]34)n2)cc1-n1cnnn1` [Compound 141, 2-(4-((4-((((1S,9aR)-octahydro-2H-quinolizin-1-yl)methyl)amino)pyrimidin-2-yl)amino)-2-(1H-tetrazol-1-yl)phenoxy)ethan-1-ol], the IC50 is, setting by setting: under setting [1], under 30 µM; under setting [2], 3.55 µM. For `Cc1nnnn1-c1cc(Nc2ncc(F)c(NC[C@@H]3CCCN4CCCC[C@H]34)n2)ccc1F` [Compound 8, 5-fluoro-N2-(4-fluoro-3-(5-methyl-1H-tetrazol-1-yl)phenyl)-N4-(((1S,9aR)-octahydro-1H-quinolizin-1-yl)methyl)pyrimidine-2,4-diamine], in that order: under 30 µM and 0.106 µM. In the same order, the values of `Cc1nnnn1-c1ccc(F)c(Nc2ncc(N(C)C)c(NC[C@@H]3CCCN4CCCC[C@H]34)n2)c1` [Compound 89, N2-(2-fluoro-5-(5-methyl-1H-tetrazol-1-yl)phenyl)-N4-(((1S,9aR)-octahydro-1H-quinolizin-1-yl)methyl)-N5,N5-dimethylpyrimidine-2,4,5-triamine] are under 30 µM and 14.6 µM. For `CC1(C)Oc2ccc(Nc3ncc(F)c(NC[C@@H]4CCCN5CCCC[C@H]45)n3)cc2-n2nnnc21` [Compound 98, N2-(4,4-dimethyl-4H-5-oxa-1,2,3,9b-tetraaza-cyclopenta[a]naphthalen-8-yl)-5-fluoro-N4-(((1S,9aR)-octahydro-1H-quinolizin-1-yl)methyl)-pyrimidine-2,4-diamine], in that order: under 30 µM and 0.0774 µM. `N#Cc1cccc(Nc2nccc(NC[C@@H]3CCCN4CCCC[C@H]34)n2)c1` [Compound 53, 3-(4-(((1S,9aR)-octahydro-1H-quinolizin-1-yl)methylamino)pyrimidin-2-ylamino)benzonitrile]: the IC50 was under 30 µM under setting [1] and 2.53 µM under setting [2]. For `COc1cc(Nc2ncc(C)c(NC[C@@H]3CCCN4CCCC[C@H]34)n2)cc(OC)c1` [Compound 70, N4-(((1S,9aR)-octahydro-1H-quinolizin-1-yl)methyl)-N2-(3,5-dimethoxyphenyl)-5-methylpyrimidine-2,4-diamine], the IC50 is under 30 µM under setting [1] and 1.53 µM under setting [2].

With `Cc1nnnn1-c1ccc(F)c(Nc2ncc(C(F)(F)F)c(NC[C@@H]3CCCN4CCCC[C@H]34)n2)c1` [Compound 104, N2-(2-fluoro-5-(5-methyl-1H-tetrazol-1-yl)phenyl)-5-(trifluoromethyl)-N4-(((1S,9aR)-octahydro-1H-quinolizin-1-yl)methyl)pyrimidine-2,4-diamine], the IC50 by setting is: under setting [1], under 30 µM; under setting [2], 26.8 µM. In the same order, the values of `COc1ccc(Nc2ncc(F)c(NC[C@@H]3CCCN4CCCC[C@H]34)n2)cc1-n1nnnc1C` [Compound 6, 5-fluoro-N4-(((1S,9aR)-octahydro-1H-quinolizin-1-yl)methyl)-N2-(4-methoxy-3-(5-methyl-1H-tetrazol-1-yl)phenyl)pyrimidine-2,4-diamine] are under 30 µM and 0.0889 µM. For the compound `Cc1nnnn1-c1cc(Nc2nccc(NC[C@@H]3CCCN4CCCC[C@H]34)n2)ccc1F` [Compound 49, N2-(4-fluoro-3-(5-methyl-1H-tetrazol-1-yl)phenyl)-N4-(((1S,9aR)-octahydro-1H-quinolizin-1-yl)methyl)pyrimidine-2,4-diamine], the IC50 under setting [1] was under 30 µM and the IC50 under setting [2] was determined as 0.897 µM. With `[2H]C([2H])(O)C([2H])([2H])Oc1cc(F)c(Nc2ncc(C#N)c(NC[C@@H]3CCCN4CCCC[C@H]34)n2)cc1-n1nnn(C)c1=O` [Compound 137, 2-((2-fluoro-4-(2-hydroxyethoxy-1,1,2,2-d4)-5-(4-methyl-5-oxo-4,5-dihydro-1H-tetrazol-1-yl)phenyl)amino)-4-((((1S,9aR)-octahydro-2H-quinolizin-1-yl)methyl)amino)pyrimidine-5-carbonitrile], the IC50 under setting [1] was under 30 µM. Regarding `C[C@H](O)COc1cc(F)c(Nc2ncc(C#N)c(NC[C@@H]3CCCN4CCCC[C@H]34)n2)cc1-n1nnn(C)c1=O` [Compound 142, 2-((2-fluoro-4-((S)-2-hydroxypropoxy)-5-(4-methyl-5-oxo-4,5-dihydro-1H-tetrazol-1-yl)phenyl)amino)-4-((((1 S,9aR)-octahydro-2H-quinolizin-1-yl)methyl)amino)pyrimidine-5-carbonitrile], the IC50 was under 30 µM under setting [1] and 0.0662 µM under setting [2]. In the same order, the values of `COc1ccc(Nc2ncc(C)c(NC[C@@H]3CCCN4CCCC[C@H]34)n2)cc1-n1nnnc1C` [Compound 64, N4-(((1S,9aR)-octahydro-1H-quinolizin-1-yl)methyl)-N2-(4-methoxy-3-(5-methyl-1H-tetrazol-1-yl)phenyl)-5-methylpyrimidine-2,4-diamine] are under 30 µM and 0.459 µM. In the same order, the values of `CN(C)c1cnc(Nc2cccc(C#N)c2)nc1NC[C@@H]1CCCN2CCCC[C@H]12` [Compound 92, 3-(4-(((1S,9aR)-octahydro-1H-quinolizin-1-yl)methylamino)-5-(dimethylamino)pyrimidin-2-ylamino)benzonitrile] are under 30 µM and 9.46 µM. In the same order, the values of `Cc1ccc(Nc2ncc(N(C)C)c(NC[C@@H]3CCCN4CCCC[C@H]34)n2)cc1C#N` [Compound 93, 5-(4-(((1S,9aR)-octahydro-1H-quinolizin-1-yl)methylamino)-5-(dimethylamino)pyrimidin-2-ylamino)-2-methylbenzonitrile] are under 30 µM and 3.92 µM.

`Cn1nnn(-c2cc(Nc3ncc(C#N)c(NC[C@@H]4CCCN5CCCC[C@H]45)n3)c(F)cc2OCC(C)(C)O)c1=O` [Compound 156, 2-((2-fluoro-4-(2-hydroxy-2-methylpropoxy)-5-(4-methyl-5-oxo-4,5-dihydro-1H-tetrazol-1-yl)phenyl)amino)-4-((((1S,9aR)-octahydro-2H-quinolizin-1-yl)methyl)amino)pyrimidine-5-carbonitrile]: the IC50 was under 30 µM under setting [1] and 0.0276 µM under setting [2]. In the same order, the values of `COc1cc(Nc2ncc(C#N)c(NC[C@@H]3CCCN4CCCC[C@H]34)n2)cc(-n2nnnc2C)c1` [Compound 115, 4-(((1S,9aR)-octahydro-1H-quinolizin-1-yl)methylamino)-2-(3-methoxy-5-(5-methyl-1H-tetrazol-1-yl)phenylamino)pyrimidine-5-carbonitrile] are under 30 µM and 0.0225 µM. For `Fc1cc(C2CC2)c(-n2cnnn2)cc1Nc1nccc(NC[C@@H]2CCCN3CCCC[C@H]23)n1` [Compound 46, N2-(4-cyclopropyl-2-fluoro-5-(1H-tetrazol-1-yl)phenyl)-N4-(((1S,9aR)-octahydro-1H-quinolizin-1-yl)methyl)pyrimidine-2,4-diamine], in that order: under 30 µM and 1.12 µM.
